Assay results as given in ChEMBL document CHEMBL3046192, “Development of new fungicides against Magnaporthe grisea: synthesis and biological activity of pyrazolo[3,4-d][1,3]thiazine, pyrazolo[1,5-c][1,3,5]thiadiazine, and pyrazolo[3,4-d]pyrimidine derivatives” (J Agric Food Chem, 2002).
Calls of active or inactive are those of the source. The calls are words filed in the database; no cut-off is given here.

How the values were obtained:
Pyricularia grisea [1] = assay: microbe, parasite or virus in culture; assay type: functional; conditions: ATCC 64413, 120 h
Pyricularia grisea [2] = assay: microbe, parasite or virus in culture; assay type: functional; conditions: ATCC 64413, 120 h; remark: listed apart in the source
Pyricularia grisea [3] = assay: microbe, parasite or virus in culture; assay type: functional; conditions: ATCC 64413, 120 h; remark: listed apart in the source
Pyricularia grisea [4] = assay: Antifungal activity against Magnaporthe grisea ATCC 64413 assessed as depigmentation of mycelium at 200 ug/ml; assay type: functional, organism-based
Pyricularia grisea [5] = assay: microbe, parasite or virus in culture; assay type: functional; conditions: ATCC 64413, 120 h; remark: listed apart in the source
Oryza sativa [6] = assay: Toxicity in Oryza sativa (rice) assessed as cell culture growth at 1 to 10 ug/ml after 10 days; assay type: organism-based; conditions: 240 h
Pyricularia grisea [7] = assay: Antifungal activity against Magnaporthe grisea ATCC 64413 infected rice plant assessed as growth inhibition at 1 to 10 ug/ml after 5 days; assay type: functional, organism-based
Oryza sativa [8] = assay: Toxicity in Oryza sativa (rice) assessed as seedling growth at 1 to 10 ug/ml after 10 days; assay type: organism-based; conditions: in vivo, 240 h
Oryza sativa [9] = assay: Toxicity in Oryza sativa (rice) assessed as seedling growth at >10 ug/ml after 10 days; assay type: organism-based; conditions: in vivo, 240 h

| Structure (SMILES) | inhibition at 100 µg/mL (Pyricularia grisea [1]) | inhibition at 10 µg/mL (Pyricularia grisea [2]) | inhibition at 200 µg/mL (Pyricularia grisea [3]) | Activity (Pyricularia grisea [4]) | inhibition at 50 µg/mL (Pyricularia grisea [5]) | Activity (Oryza sativa [6]) | Activity (Pyricularia grisea [7]) | Activity (Oryza sativa [8]) | Activity (Oryza sativa [9]) |
| --- | --- | --- | --- | --- | --- | --- | --- | --- | --- |
| Cc1n[nH]c2nc(Cc3ccccc3)sc(=S)c12 | 76% | 73% | 77% | Active | 75% | – | – | – | – |
| Cc1n[nH]c2nc(Cc3ccccc3)sc(=O)c12 | 77% | 30% | 80% | – | 57% | – | – | – | – |
| Cc1cc2nc(-c3ccc(Br)cc3)sc(=O)n2n1 | 58% | 47% | 74% | – | 47% | – | – | – | – |
| Cc1nn(C(C)(C)C)c2nc(-c3ccccc3)sc(=O)c12 | 16% | 14% | 19% | – | 14% | – | – | – | – |
| Cc1n[nH]c2nc(-c3ccccc3)sc(=O)c12 | 28% | 16% | 30% | – | 24% | – | – | – | – |
| Cc1cc2nc(C(F)(F)F)sc(=O)n2n1 | 99.5% | 64.5% | 100% | – | 97.9% | – | – | – | – |
| Cc1cccc2sc3nncn3c12 [TRICYCLAZOLE] | 61.5% | 0% | 94% | – | 23.5% | – | – | – | – |
| Cc1nn(-c2ccc(Cl)c(Cl)c2)c2nc(C(F)(F)F)sc(=S)c12 | 90.5% | 57.7% | 100% | – | 83.1% | – | – | – | – |
| O=c1sc(-c2ccccc2)nc2cc(-c3ccccc3)nn12 | 15% | 15% | 15% | – | 15% | – | – | – | – |
| Cc1cc2nc(C(F)(F)F)sc(=S)n2n1 | 79.7% | 48.4% | 93.2% | – | 79.6% | – | – | – | – |
| Cc1nn(-c2ccc(Cl)c(Cl)c2)c2nc(C(F)(F)F)[nH]c(=S)c12 | 100% | 52% | 100% | – | 91% | – | – | – | – |
| Cc1nn(-c2ccccc2)c2nc(C(F)(F)F)sc(=S)c12 | 29.6% | – | 43.8% | – | – | – | – | – | – |
| Cc1cc2nc(-c3ccc(Cl)cc3)sc(=O)n2n1 | 66% | 17% | 66% | – | 62% | – | – | – | – |
| Cc1nn(C(C)(C)C)c2nc(C(F)(F)F)sc(=S)c12 | 42.7% | – | 58.3% | – | – | – | – | – | – |
| Cc1cc2nc(-c3ccccc3)sc(=O)n2n1 | 100% | 92.4% | 100% | – | 100% | Non-toxic | Active | Non-toxic | Toxic |
| Cc1nn(-c2cccc([N+](=O)[O-])c2)c2nc(C(F)(F)F)sc(=S)c12 | 91.7% | 71.2% | 100% | – | 89.1% | – | – | – | – |
| O=c1sc(-c2ccccc2)nc2ccnn12 | 73.1% | 67% | 75.1% | – | 70.2% | – | – | – | – |
| Cc1nn(-c2cccc([N+](=O)[O-])c2)c2nc(C(F)(F)F)[nH]c(=S)c12 | 78% | 32% | 95.9% | – | 61% | – | – | – | – |
| Cc1n[nH]c2nc(-c3ccccc3)sc(=S)c12 | 17% | 14% | 21% | – | 15% | – | – | – | – |
| Cc1nn(C(C)(C)C)c2nc(C(F)(F)F)[nH]c(=S)c12 | 35% | 25% | 44% | – | 31% | – | – | – | – |
| Cc1nn(C(C)(C)C)c2nc(-c3ccccc3)sc(=S)c12 | 16% | 14% | 17% | – | 16% | – | – | – | – |
| Cc1nn(-c2cccc([N+](=O)[O-])c2)c2nc(C(F)(F)F)sc(=O)c12 | 54.4% | 21.9% | 81.1% | – | 39.6% | – | – | – | – |
| Cc1nn(-c2ccccc2)c2nc(C(F)(F)F)[nH]c(=S)c12 | 55% | 23% | 58% | – | 37% | – | – | – | – |
